In patent US20170172959A1, “D-SERINE FOR THE TREATMENT OF VISUAL SYSTEM DISORDERS” (Allergan, Inc., priority 2011, published 2017):
Entries after “also recorded” stand apart in the source; their conditions may differ.

Tests used:
[1] = system: blue-light treated Long-Evans rats; test: Contrast sensitivity by sweep VEP in rats with retinal damage induced by blue-light exposure; format: in vivo, rat; conditions: 100 or 600 mg/kg injected, saline control, cross-over; measured 30 minutes after treatment; spatial frequency 0.575 cpd; sixteen (600 mg/kg) and fifty weeks (100 mg/kg) after blue-light treatment; FIG. 3
Procedure: Two doses of D-serine were tested and vehicle (saline) was used as a control. Half of the rats were injected with either 100 or 600 mg/kg D-serine and the other half with saline in the first test; cross-over exposure took place one week later; the spatial frequencies were fixed at 0.575 cycles per degree (cpd). In FIG. 3, the mean values of contrast sensitivity are shown for rats treated with D-serine or saline, with a baseline taken prior to treatment (“pre”) and the contrast sensitivity measured 30 minutes after treatment (“post”).
Sweep visually evoked potential (sweep VEP, sVEP), which was first introduced by Regan in 1973, has become an important technique to measure visual function (VF). It is an objective method that can be used to assess contrast sensitivity (CS) in infants, young children and people with special needs. It was adapted to measure CS in animals.
VEP recording: The recording electrodes were permanently implanted into the right visual cortex of Long Evans rats at lambda and 4.5 mm lateral to the midline, to a depth of 800 microns (layer III/IV). […]
Visual stimuli: Stimuli were presented on a CRT computer monitor and consist of full-field sine-wave gratings at fixed special frequency (0.5, 0.575 or 0.65 cpd in FIG. 1 and 0.575 cpd in FIG. 2), reversing at 6.25 Hz. […] Contrast sensitivity (CS) is calculated as 1/CT.

[2] = system: primary visual cortex of adult rats; test: LTP in visual cortex slice (fEPSP amplitude after theta burst stimulation); format: cell-based; conditions: adult Sprague Dawley rat visual cortex slices; compound infused 15 minutes before LTP induction; LTP values at 30 minutes after induction; FIG. 1
Procedure: LTP in Visual Cortex Slice: Following decapitation of the rat, the brain was rapidly removed and immersed in ice-cold artificial cerebrospinal fluid (ACSF) containing 124 mM NaCl, 3 mM KCl, 1.25 mM KH2PO4, 3.4 mM CaCl2, 2.5 mM MgSO4, 26 mM NaHCO3, and 10 mM D-glucose. A block of visual cortex was created by removing the frontal 2/3 portion of the brain and the cerebellum. Coronal visual cortex slices of 375 μm were prepared from adult Sprague Dawley (SD) rats using a vibratome (VT 1000 S, Leica). The slices were maintained in an interface recording chamber perfused with preheated ACSF. Slices were continuously perfused with this solution at a rate of 1.00-1.50 ml/min while the surface of the slices was exposed to warm, humidified 95% O2/5% CO2 and maintained at 31±1° C. Visual cortex slices were allowed to recover for 1 hr before recording began. […] This was repeated 2 additional times with a 1 minute intertrain interval, and the level of LTP was recorded for at least 30 min. Changes in amplitude of the synaptic response were used to measure the extent of LTP because it was determined to be the more consistent parameter than the slope of the response. […] Statistical comparisons were done with LTP values recorded at 30 minutes after induction.

[3] = system: slices of kitten visual cortex; conditions: Neuroscience Letters 303 (2001) 95-98; cited from earlier work

Question: Which results are given for `N[C@H](CO)C(=O)O` [D-serine]?
Answer: contrast sensitivity [1]: improved the contrast sensitivity; also recorded: dose-dependent improvement in contrast sensitivity; also recorded: enhances contrast sensitivity and visual function; long-term potentiation (LTP) in the primary visual cortex [2]: dose-dependently facilitates long-term potentiation (LTP); also recorded: significantly enhanced the LTP; LTP enhancement by D-serine alone [3]: did not enhance LTP; effect on LTP suppression by the co-agonist site antagonist 7-chlorokynurenic acid [3]: only produced a reversal of the suppressant effects
